In patent US8940909B2, “Indicator platform” (Biosynth AG, priority 2009, dated 2015):

Experiments:
[1] = tested on: bacteria producing various biomarker enzymes; experiment: IO staining of colonies of bacteria producing various biomarker enzymes (Table IVc); assay type: cell-based; settings: for F: Fluorescence of colonies (hue): hue of fluorescence of stained colonies, 24 h on agar containing the indicator (Table IVc)
[2] = tested on: beta-galactosidase positive Eschericha coli (NM1); experiment: IO staining of bacterial colonies on Nutrient Agar (color, fluorescence, localization, growth); for C: Color of colonies (strength): key: −: absent; +/−: weak; +: strong; ++: very strong; for F: Fluorescence of colonies (strength): key: −: absent; +/−: weak; +: strong; ++: very strong; for G: Growth of colonies: key: −: absent; +/−: weak; +: strong; ++: very strong; for L: Localization of stain on colonies: key: −: absent; +/−: weak; +: strong; ++: very strong; assay type: cell-based, E. coli; settings: 150 mg/l substrate and 100 mg/l IPTG
Method: Nutrient Agar (5 g/l peptone, 5 g/l NaCl, 2 g/l yeast extract, 1 g/l beef extract, 13 g/l agar, pH 7.4) was autoclaved and allowed to cool to 50° C. Then indicators were added to final concentrations of 150 mg/l (from a 20 mg/ml stock solution in DMF).
Optionally IPTG was added to 100 mg/l (from a 100 mg/ml stock solution in H2O) and plates were poured. Agar plates were inoculated with cultures of beta-galactosidase positive Eschericha coli (NM1) or beta-galactosidase negative Salmonella enteritidis (RKI 05/07992) (pre-grown on nutrient broth for 8-18 hours) and incubated at 37° C. Plates were inspected at 16, 20, 24 and 48 hours and pictures were recorded at 18, 24, and 48 hours with a Digistore 2 Image documentation system (CAMAG) under white light.
A considerable number of indicators molecules (Table IVa, IVb) and a selection of labile groups (Table IVc) were tested with various microbial species producing different biomarker enzymes (external stimuli, eS). The color of stains ranges from yellow to red.
Plating media from Example 10 were examined under 366 nm UV irradiation at 16, 20, 24 and 48 hours for fluorescence by means of Digistore 2 Image documentation system (CAMAG). Loops of bacterial cells, grown for 48 hours on Nutrient Agar plates containing 150 mg/l beta-D-galactosidase indicator and 100 mg/l IPTG, were directly streaked into wells of black clear bottom microtiter plates. Fluorescence scans were recorded on a Spectramax M5 (Molecular Devices).

[3] = Bacillus cereus strain 51, plc +, 24 h on Tryptic Soy Agar, 0.78 mM PC PLC Indicator, 3.2 g/l BSA, 0.05% Tween80, 5 mM MnCl2
[4] = Bacillus cereus strain 191, plc +, 24 h on Tryptic Soy Agar, 0.78 mM PC PLC Indicator, 3.2 g/l BSA, 0.05% Tween80, 5 mM MnCl2
[5] = Bacillus cereus strain 192, plc +, 24 h on Tryptic Soy Agar, 0.78 mM PC PLC Indicator, 3.2 g/l BSA, 0.05% Tween80, 5 mM MnCl2
[6] = Bacillus cereus strain 289, plc +, 24 h on Tryptic Soy Agar, 0.78 mM PC PLC Indicator, 3.2 g/l BSA, 0.05% Tween80, 5 mM MnCl2
[7] = Bacillus mycoides strain 64, plc +, 24 h on Tryptic Soy Agar, 0.78 mM PC PLC Indicator, 3.2 g/l BSA, 0.05% Tween80, 5 mM MnCl2
[8] = Bacillus thuringiensis strain 66, plc +, 24 h on Tryptic Soy Agar, 0.78 mM PC PLC Indicator, 3.2 g/l BSA, 0.05% Tween80, 5 mM MnCl2
[9] = Escherichia coli strain 61, plc +/−, 24 h on Tryptic Soy Agar, 0.78 mM PC PLC Indicator, 3.2 g/l BSA, 0.05% Tween80, 5 mM MnCl2
[10] = Escherichia coli strain 270, plc +/−, 24 h on Tryptic Soy Agar, 0.78 mM PC PLC Indicator, 3.2 g/l BSA, 0.05% Tween80, 5 mM MnCl2
[11] = Listeria monocytogenes (4b) strain 290, plc +, 24 h on Tryptic Soy Agar, 0.78 mM PC PLC Indicator, 3.2 g/l BSA, 0.05% Tween80, 5 mM MnCl2
[12] = Pseudomonas aeruginosa strain 168, plc +, 24 h on Tryptic Soy Agar, 0.78 mM PC PLC Indicator, 3.2 g/l BSA, 0.05% Tween80, 5 mM MnCl2
[13] = Pseudomonas aeruginosa strain 168, plc +, 24 h on Tryptic Soy Agar, 0.78 mM PC PLC Indicator, 3.2 g/l BSA, 0.05% Tween80, 5 mM MnCl2, natural color, same on agar without substrate
[14] = Pseudomonas aeruginosa strain 168, plc +, 24 h on Tryptic Soy Agar, 0.78 mM PC PLC Indicator, 3.2 g/l BSA, 0.05% Tween80, 5 mM MnCl2, natural fluorescence, same on agar without substrate
[15] = Escherichia coli strain 61, glucuronidase +, 24 h on Nutrient Agar, 0.45 mM beta-D-Glucuronidase Indicator
[16] = Escherichia coli strain 62, glucuronidase +, 24 h on Nutrient Agar, 0.45 mM beta-D-Glucuronidase Indicator
[17] = Escherichia coli strain 270, glucuronidase +, 24 h on Nutrient Agar, 0.45 mM beta-D-Glucuronidase Indicator
[18] = Klebsiella pneumoniae strain 164, glucuronidase −, 24 h on Nutrient Agar, 0.45 mM beta-D-Glucuronidase Indicator
[19] = Bacillus cereus strain 289, 24 h on Nutrient Agar, 0.52 mM C1-Esterase Indicator
[20] = Escherichia coli strain 270, 24 h on Nutrient Agar, 0.52 mM C1-Esterase Indicator
[21] = Klebsiella pneumoniae strain 164, 24 h on Nutrient Agar, 0.52 mM C1-Esterase Indicator
[22] = Enterobacter aerogenes strain 242, a-glucosidase −, 24 h on Nutrient Agar, 150 mg/l alpha-D-Glucosidase Indicator
[23] = Enterobacter cloacae strain 245, a-glucosidase −, 24 h on Nutrient Agar, 150 mg/l alpha-D-Glucosidase Indicator
[24] = Enterobacter sakazakii strain 141, a-glucosidase +, 24 h on Nutrient Agar, 150 mg/l alpha-D-Glucosidase Indicator
[25] = Enterobacter sakazakii strain 142, a-glucosidase +, 24 h on Nutrient Agar, 150 mg/l alpha-D-Glucosidase Indicator
[26] = Escherichia coli strain 270, a-glucosidase −, 24 h on Nutrient Agar, 150 mg/l alpha-D-Glucosidase Indicator
[27] = Shigella sonnei strain 133, a-glucosidase −, 24 h on Nutrient Agar, 150 mg/l alpha-D-Glucosidase Indicator

Molecule: 1-[2-(2,4-Dimethoxybenzoyl)phenyl]-1H-indol-3-yl choline phosphate [Indicator I25d]
- C: Color of colonies [1, 3]: +
- F: Fluorescence of colonies [1, 3]: ++
- G: Growth of colonies [1, 3]: +
- C: Color of colonies [1, 4]: +
- F: Fluorescence of colonies [1, 4]: ++
- G: Growth of colonies [1, 4]: +
- C: Color of colonies [1, 5]: ++
- F: Fluorescence of colonies [1, 5]: ++
- G: Growth of colonies [1, 5]: +
- C: Color of colonies [1, 6]: +
- F: Fluorescence of colonies [1, 6]: ++
- G: Growth of colonies [1, 6]: +
- C: Color of colonies [1, 7]: +
- F: Fluorescence of colonies [1, 7]: ++
- G: Growth of colonies [1, 7]: +
- C: Color of colonies [1, 8]: +
- F: Fluorescence of colonies [1, 8]: ++
- G: Growth of colonies [1, 8]: +
- C: Color of colonies [1, 9]: +/−
- F: Fluorescence of colonies [1, 9]: +/−
- G: Growth of colonies [1, 9]: +
- C: Color of colonies [1, 10]: +/−
- F: Fluorescence of colonies [1, 10]: +/−
- G: Growth of colonies [1, 10]: +
- C: Color of colonies [1, 11]: −
- F: Fluorescence of colonies [1, 11]: −
- G: Growth of colonies [1, 11]: +
- G: Growth of colonies [1, 12]: +
- C: Color of colonies [1, 13]: y-g^1
- F: Fluorescence of colonies [1, 14]: b^2
- F: Fluorescence of colonies (hue) [1]: y-g

Molecule: 5-Bromo-4-chloro-1H-indol-3-yl choline phosphate [Indicator I4d, reference compound]
- C: Color of colonies [1, 3]: +/−
- F: Fluorescence of colonies [1, 3]: −
- G: Growth of colonies [1, 3]: +
- C: Color of colonies [1, 4]: +/−
- F: Fluorescence of colonies [1, 4]: −
- G: Growth of colonies [1, 4]: +
- C: Color of colonies [1, 5]: ++
- F: Fluorescence of colonies [1, 5]: −
- G: Growth of colonies [1, 5]: +
- C: Color of colonies [1, 6]: −
- F: Fluorescence of colonies [1, 6]: −
- G: Growth of colonies [1, 6]: +
- C: Color of colonies [1, 7]: +
- F: Fluorescence of colonies [1, 7]: −
- G: Growth of colonies [1, 7]: +
- C: Color of colonies [1, 8]: +/−
- F: Fluorescence of colonies [1, 8]: −
- G: Growth of colonies [1, 8]: +
- C: Color of colonies [1, 9]: +
- F: Fluorescence of colonies [1, 9]: −
- G: Growth of colonies [1, 9]: +
- C: Color of colonies [1, 10]: +/−
- F: Fluorescence of colonies [1, 10]: −
- G: Growth of colonies [1, 10]: +
- C: Color of colonies [1, 11]: −
- F: Fluorescence of colonies [1, 11]: −
- G: Growth of colonies [1, 11]: +
- G: Growth of colonies [1, 12]: +
- C: Color of colonies [1, 13]: y-g^1
- F: Fluorescence of colonies [1, 14]: b^2
- F: Fluorescence of colonies (hue) [1]: −

Molecule: O=C([O-])[C@H]1O[C@@H](Oc2c[nH]c3cc(Cl)ccc23)[C@H](O)[C@@H](O)[C@@H]1O.[Na+] [Indicator I3f, 6-Chloro-1H-indol-3-yl-beta-D-glucuronide sodium salt, reference compound]
- C: Color of colonies [1, 15]: +
- F: Fluorescence of colonies [1, 15]: −
- G: Growth of colonies [1, 15]: +
- C: Color of colonies [1, 16]: +
- F: Fluorescence of colonies [1, 16]: −
- G: Growth of colonies [1, 16]: +
- C: Color of colonies [1, 17]: +
- F: Fluorescence of colonies [1, 17]: −
- G: Growth of colonies [1, 17]: +
- C: Color of colonies [1, 18]: −
- F: Fluorescence of colonies [1, 18]: −
- G: Growth of colonies [1, 18]: +

Molecule: CC(=O)Oc1c[nH]c2ccc(Br)c(Cl)c12 [Indicator I4c, 5-Bromo-4-chloro-1H-indol-3-yl acetate, reference compound]
- C: Color of colonies [1, 19]: −
- F: Fluorescence of colonies [1, 19]: −
- G: Growth of colonies [1, 19]: −
- C: Color of colonies [1, 20]: −
- F: Fluorescence of colonies [1, 20]: −
- G: Growth of colonies [1, 20]: +/−
- C: Color of colonies [1, 21]: +
- F: Fluorescence of colonies [1, 21]: −
- G: Growth of colonies [1, 21]: +
- F: Fluorescence of colonies (hue) [1]: −

Molecule: CC(=O)Oc1cn(-c2ccccc2C(=O)c2ccccc2)c2ccccc12 [Indicator I19c, 1-(2-Benzoylphenyl)-1H-indol-3-yl acetate]
- C: Color of colonies [1, 19]: ++
- G: Growth of colonies [1, 19]: +
- C: Color of colonies [1, 20]: +/−
- G: Growth of colonies [1, 20]: +
- C: Color of colonies [1, 21]: +
- G: Growth of colonies [1, 21]: +

Molecule: O=C(c1ccccc1)c1ccccc1-n1cc(O[C@H]2O[C@H](CO)[C@@H](O)[C@H](O)[C@H]2O)c2ccc(Cl)cc21 [Indicator I21e, 1-(2-Benzoylphenyl)-6-chloro-1H-indol-3-yl-alpha-D-glucopyranoside]
- C: Color of colonies [1, 22]: −
- F: Fluorescence of colonies [1, 22]: −
- G: Growth of colonies [1, 22]: +
- C: Color of colonies [1, 23]: −
- F: Fluorescence of colonies [1, 23]: −
- G: Growth of colonies [1, 23]: +
- C: Color of colonies [1, 24]: +
- F: Fluorescence of colonies [1, 24]: +/−
- G: Growth of colonies [1, 24]: +
- C: Color of colonies [1, 25]: +
- F: Fluorescence of colonies [1, 25]: +/−
- G: Growth of colonies [1, 25]: +
- C: Color of colonies [1, 26]: −
- F: Fluorescence of colonies [1, 26]: −
- G: Growth of colonies [1, 26]: +
- C: Color of colonies [1, 27]: −
- F: Fluorescence of colonies [1, 27]: −
- G: Growth of colonies [1, 27]: +
- F: Fluorescence of colonies (hue) [1]: y-g

Molecule: O=C(c1ccccc1)c1ccccc1-n1cc(O[C@@H]2O[C@H](C(=O)[O-])[C@@H](O)[C@H](O)[C@H]2O)c2ccc(Cl)cc21.[Na+] [Indicator I21f, 1-(2-Benzoylphenyl)-6-chloro-1H-indol-3-yl-beta-D-glucuronide sodium salt]
- C: Color of colonies [1, 15]: +
- F: Fluorescence of colonies [1, 15]: +/−
- G: Growth of colonies [1, 15]: +
- C: Color of colonies [1, 16]: +
- F: Fluorescence of colonies [1, 16]: +/−
- G: Growth of colonies [1, 16]: +
- C: Color of colonies [1, 17]: +
- F: Fluorescence of colonies [1, 17]: +/−
- G: Growth of colonies [1, 17]: +
- C: Color of colonies [1, 18]: −
- F: Fluorescence of colonies [1, 18]: −
- G: Growth of colonies [1, 18]: +
- F: Fluorescence of colonies (hue) [1]: y-o

Molecule: O=C(c1ccccc1)c1ccc(Cl)cc1-n1cc(O[C@@H]2O[C@H](CO)[C@H](O)[C@H](O)[C@H]2O)c2ccc(Cl)cc21 [Indicator I23a, 1-(2-Benzoyl-5-chlorophenyl)-6-chloro-1H-indol-3-yl-beta-D-galactopyranoside]
- F: Fluorescence of colonies (colour) ([2]; 24 h, 366 nm UV): green-yellow
- C: Color of colonies (colour of stain) ([2]; 24 h on Nutrient Agar): yellow
- G: Growth of colonies ([2]; E. coli, 24 h): +
- L: Localization of stain on colonies ([2]; E. coli, 24 h): +
- F: Fluorescence of colonies (strength) ([2]; E. coli, 24 h, 366 nm UV): +
- C: Color of colonies (strength) ([2]; E. coli, 24 h on Nutrient Agar): +
